Experimental data from PMC7806714, “Statins for the prevention of proliferative vitreoretinopathy: cellular responses in cultured cells and clinical statin concentrations in the vitreous” (Scientific Reports, 2021).
Where two headings read alike, the source gives them in different places.

Columns and labels:
ARPE-19 cells [1] = test: LDH release assay (cell membrane integrity); format: cell-based, human
Experimental: (§1) Cell viability was assessed by determining the amount of LDH enzyme from culture media using a commercial kit (Promega Corporation, USA) according to the manufacturer’s protocol. This assay provides information about the integrity of the plasma membranes of the cells (high LDH levels meaning cell damage). In addition, the cell viability was examined with MTT assay, as described previously. In viable cells, the mitochondrial succinate dehydrogenase enzyme can metabolize the MTT dye into formazan that absorbs light at the 550 nm wavelength.

MTT cell viability assay = format: cell-based, human; conditions: human, ARPE-19 cells; dissolved in DMSO; read-out: Cell viability (MTT) compared to DMSO control
Experimental: as §1

ARPE-19 cells [2] = test: MTT cell viability assay; format: cell-based, human
Experimental: as §1

[3] = UPLC-MS/MS statin and metabolite concentrations in vitreous of vitrectomy patients on oral statins; format: in vivo, human
Experimental: The study was conducted according to the tenets of the Declaration of Helsinki, and was approved by the Institutional Review Board and Ethical committee of Helsinki University Central Hospital. Twenty patients were enrolled; fifteen with per oral statin treatment and five controls. Signed informed consent was obtained from each participant prior to the vitreous sampling. Confidentiality of the patient records was maintained when the clinical data were entered into a computer-based standardized data entry for analysis. Sixteen patients were being operated due to PDR; of these, five patients had also Tractional Retinal Detachment (TRD); two patients were operated due to RRD, one due to age-related epiretinal fibrosis (pucker), and one due to a macular hole (Supplementary Table S2). […] All vitrectomies were performed by the recruiting vitreoretinal surgeon (SL). […] The samples were collected by manual aspiration into a syringe via the vitrectomy with the cutting function activated. Sample aliquots were transferred into sterile 1.5 mL microcentrifuge tubes (Freemont, CA, USA) and immediately frozen and stored at − 70 °C until laboratory analysis. […] All reference compounds and internal standards were purchased from Toronto Research Chemicals (Toronto, Canada). Samples (100 µl) were divided into two aliquots and kept at − 80 °C prior to analysis. […] Homogenizer blocks were pre-cooled by placing them at − 20 °C. […] Supernatants (120 µl) were pipetted into analytical vials and the concentrations of the statins were measured with Ultra-high Pressure Liquid Chromatography—tandem Mass Spectrometry (UPLC-MS/MS) technique. The same pre-treatment protocol was used to prepare calibration curves and quality control samples but homogenized and filtered porcine vitreous were used as a matrix instead of human vitreous. A minimum of six calibration curve concentrations was used for quantitation of the compounds. Two parallel calibration curve sets included all eleven analytes and four deuterated internal standards. Three quality control samples in three parallel sets were used to validate the method. The linear range varied from approximately 0.004 to 10 ng/mL depending on the analyte. Limit of quantitation was set to the smallest calibration curve point of each drug. Each sample was analysed twice and the average of these values was designated as the concentration of the sample. […] For rosuvastatin, two metabolites were analysed: rosuvastatin lactone and N-desmethyl rosuvastatin lactone. Rosuvastatin D6 was used as an internal standard. The parent drug, its metabolites and internal standard were analysed from the same sample in each case. Liquid chromatography separation was carried out using a Waters Acquity UPLC instrument (Waters, MA, USA) coupled with Waters HSS T3 C18 (2.1 × 100 mm, 1.8 µm) column at 40 °C. The mobile phase consisted of 0.1% formic acid in ultrapure water (A) and 100% of LC–MS grade acetonitrile (B). […] The flow rate was set to 0.3 mL/min and injection volume 1.5 µl. After every three samples, a solvent blank was run to control for any carry over. Mass spectrometry measurements were carried out using a Waters Xevo Triple Quadruple mass spectrometer (TQ-S) equipped with an ESI source. […] The source parameters were as follows: Capillary voltage 2.8 kV, source temperature 150 °C and desolvation temperature 500 °C. Nitrogen (Aga, Helsinki, Finland) was used as a desolvation gas (800 l/h), a cone gas (150 l/h) and a nebulizer gas (7 bar). Argon (Aga, Helsinki, Finland) was used as a collision gas (0.15 mL/min). The Multiple Reaction Monitoring (MRM) mode was used for quantification. Precursor and fragment ions, as well as other optimized parameters are listed in Supplementary Table S3.

[4] = plasma, cited from earlier work
[5] = free fraction of drug in plasma; ref summary of product characteristics document; cited from earlier work
IL-6 = test: ELISA of LPS-induced IL-6 release from ARPE-19 cells
IL-8 = test: ELISA of LPS-induced IL-8 release from ARPE-19 cells; conditions: 5 µM, 24 h prior to LPS
MCP-1 = test: ELISA of LPS-induced MCP-1 release from ARPE-19 cells
[6] = oral 20 mg/d, patients' vitreous
[7] = 10 mg/d single oral dose, n=12, China, ref [30]
[8] = 10 mg/d single oral dose, n=18, Germany, ref [31]
[9] = 20 mg/d single oral dose, n=6, UK, ref [32]
[10] = 20 mg/d single oral dose, n=12, Chinese, ref [30]
[11] = 48 h exposure prior to LPS, 1.5, 5, 10 µM tested

CC(C)c1nc(N(C)S(C)(=O)=O)nc(-c2ccc(F)cc2)c1/C=C/[C@@H](O)C[C@@H](O)CC(=O)O [Rosuvastatin]
LDH levels / cell membrane integrity (ARPE-19 cells [1]; 24 h exposure, with LPS, dissolved in DMSO): more damage to the cell membrane | LDH levels / cell membrane integrity (ARPE-19 cells [1]; 24 h exposure, without LPS, dissolved in DMSO): protected the integrity of the cell membrane | LDH levels / cell membrane integrity (ARPE-19 cells [1]; 48 h exposure, with LPS, dissolved in DMSO): protect cells from LPS-induced cell membrane rupturing | LDH levels / cell membrane integrity (ARPE-19 cells [1]; 48 h exposure, dissolved in DMSO): acute toxic effects on the cell membrane | LDH levels / cell membrane integrity (ARPE-19 cells [1]; dissolved in water, 48 h, with LPS): interfered with the cell membrane integrity | LDH levels (ARPE-19 cells [1]; dissolved in water, within 24 h, irrespective of LPS): did not cause any changes in the LDH levels | viability (MTT cell viability assay): 88% | Cellular toxicity in MTT test (ARPE-19 cells [2]; dissolved in DMSO, 24 h or 48 h, with or without LPS): well tolerated | Cell viability in MTT assay (ARPE-19 cells [2]; dissolved in water): did not compromise cell viability | vitreous concentration range ([3]; 10–20 mg daily, oral): 52 to 316 pg/mL | Measured Cv Average ([3]; oral 10 mg/d, patients' vitreous): 0.055 ng/mL | Measured Cv Range (lower) [3, 6]: 0.052 ng/mL | Measured Cv Range (upper) [3, 6]: 0.316 ng/mL | Concentration in vitreous sample ([3]; patient 359, Pucker, diabetes, oral rosuvastatin 20 mg): 0.056 ng/mL | Concentration in vitreous sample ([3]; patient 371, PDR, dose 0* (control without reported statin treatment)): 0.241 ng/mL | Concentration in vitreous sample ([3]; patient 383, PDR, oral rosuvastatin 10 mg): 0.055 ng/mL | Concentration in vitreous sample ([3]; patient 397, PDR, oral rosuvastatin 20 mg): 0.168 ng/mL | Concentration in vitreous sample ([3]; patient 412, PDR, oral rosuvastatin 20 mg): 0.316 ng/mL | Concentration in vitreous sample ([3]; patient 428, MH, diabetes, not DR, oral rosuvastatin 20 mg): 0.052 ng/mL | AUC0−∞ [4, 7]: 103 ng·h/mL | Cmax [4, 7]: 10.8 ng/mL | AUC0−∞ [4, 8]: 48.4 ng·h/mL | Cmax [4, 8]: 4.5 ng/mL | AUC0−∞ [4, 9]: 63.1 ng·h/mL | Cmax [4, 9]: 6.1 ng/mL | AUC0−∞ [4, 10]: 177 ng·h/mL | Cmax [4, 10]: 19.2 ng/mL | fu [5]: 0.12 | LPS-induced release of IL-6 (IL-6; 5 µM, 24 h prior to LPS (rosuvastatin: DMSO and water)): reduced | LPS-induced release of IL-6 (IL-6; 10 µM, 24 h prior to LPS (rosuvastatin: DMSO and water)): reduced | LPS-induced release of IL-6 (IL-6; [11]): decreasing trends | LPS-induced release of IL-8 (IL-8): reduced | LPS-induced release of MCP-1 (MCP-1; 5 µM, 24 h prior to LPS): decreased | LPS-induced release of MCP-1 (MCP-1; [11]): decreasing trends
